Source: patent US20240360126A1, “PYRAZOLO[3,4-B]PYRIDINE COMPOUNDS FOR THE TREATMENT OF AUTOIMMUNE DISEASE” (Hoffmann-La Roche Inc., priority 2021, published 2024)

Key:
human TLR7 = target: T1, human TLR7 (Homo sapiens, UniProt Q9NYK1); assay: HEK293-Blue-hTLR-7 cells assay; assay type: cell-based; conditions: HEK293-Blue-hTLR7 cells, R848 stimulation, 20 hrs; read-out: HEK/hTLR7 IC50
T1 construct: host or cells: HEK293 (HEK-Blue hTLR7)
T1 sequence (Q9NYK1 27-1049): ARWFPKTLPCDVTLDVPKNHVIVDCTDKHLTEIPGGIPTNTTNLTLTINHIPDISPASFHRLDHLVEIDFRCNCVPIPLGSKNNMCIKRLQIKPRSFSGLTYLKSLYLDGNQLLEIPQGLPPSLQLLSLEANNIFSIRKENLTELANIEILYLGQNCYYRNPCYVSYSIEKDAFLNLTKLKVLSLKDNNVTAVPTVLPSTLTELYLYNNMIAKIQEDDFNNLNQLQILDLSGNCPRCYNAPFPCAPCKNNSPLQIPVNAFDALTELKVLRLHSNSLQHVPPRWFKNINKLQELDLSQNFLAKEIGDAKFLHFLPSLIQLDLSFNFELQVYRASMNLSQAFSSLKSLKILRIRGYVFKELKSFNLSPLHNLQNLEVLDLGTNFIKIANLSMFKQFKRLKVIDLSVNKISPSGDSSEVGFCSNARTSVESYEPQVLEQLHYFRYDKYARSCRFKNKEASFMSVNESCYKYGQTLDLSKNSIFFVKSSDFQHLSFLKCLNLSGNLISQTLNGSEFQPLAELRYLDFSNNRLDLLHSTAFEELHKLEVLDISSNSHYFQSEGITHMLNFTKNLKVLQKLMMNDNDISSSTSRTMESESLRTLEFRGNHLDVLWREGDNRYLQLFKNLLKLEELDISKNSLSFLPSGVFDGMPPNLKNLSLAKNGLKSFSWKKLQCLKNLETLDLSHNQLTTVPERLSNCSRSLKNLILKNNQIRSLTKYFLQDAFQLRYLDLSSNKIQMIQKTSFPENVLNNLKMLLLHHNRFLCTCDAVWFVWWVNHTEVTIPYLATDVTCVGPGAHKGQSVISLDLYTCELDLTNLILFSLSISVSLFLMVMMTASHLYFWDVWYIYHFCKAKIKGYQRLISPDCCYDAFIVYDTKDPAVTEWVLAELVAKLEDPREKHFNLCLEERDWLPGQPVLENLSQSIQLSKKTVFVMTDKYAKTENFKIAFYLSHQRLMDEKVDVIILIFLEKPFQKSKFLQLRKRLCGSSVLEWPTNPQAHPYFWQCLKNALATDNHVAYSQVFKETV
Text: A stable HEK293-Blue-hTLR-7 cell line was purchased from InvivoGen (Cat. #: hkb-htlr7, San Diego, California, USA). These cells were originally designed for studying the stimulation of human TLR7 by monitoring the activation of NF-κB. A SEAP (secreted embryonic alkaline phosphatase) reporter gene was placed under the control of the IFN-β minimal promoter fused to five NF-κB and AP-1-binding sites. The SEAP was induced by activating NF-κB and AP-1 via stimulating HEK-Blue hTLR7 cells with TLR7 ligands. Therefore the reporter expression was declined by TLR7 antagonist under the stimulation of a ligand, such as R848 (Resiquimod), for incubation of 20 hrs. The cell culture supernatant SEAP reporter activity was determined using QUANTI-Blue™ kit (Cat. #: rep-qbl, Invivogen, San Diego, Ca, USA) at a wavelength of 640 nm, a detection medium that turns purple or blue in the presence of alkaline phosphatase.
HEK293-Blue-hTLR7 cells were incubated at a density of 250,000-450,000 cells/mL in a volume of 170 μL in a 96-well plate in Dulbecco's Modified Eagle's medium (DMEM) containing 4.5 g/L glucose, 50 U/mL penicillin, […] streptomycin, […] Normocin, […] L-glutamine, 10% […] heat-inactivated fetal bovine serum with addition of 20 μL test compound in a serial dilution in the presence of final DMSO at 1% and 10 μL of 20 μM R848 in above DMEM, perform incubation under 37° C. in a CO2 incubator for 20 hrs. Then 20 μL of the supernatant from each well was incubated with 180 μL Quanti-blue substrate solution at 37° C. for 2 hrs and the absorbance was read at […] using a spectrophotometer. The signaling pathway that TLR7 activation leads to downstream NF-κB activation has been widely accepted, and therefore similar reporter assay was modified for evaluating TLR7 antagonist.

[1] = Human microsome stability assay; assay type: in vitro ADME; conditions: 1 μM test compound, 0.5 mg/mL liver microsomal protein, 37° C.
Experimental: The human microsomal stability assay is used for early assessment of metabolic stability of a test compound in human liver microsomes.
Human liver microsomes (Cat. NO.: 452117, Corning, USA; Cat. NO.:H2610, Xenotech, USA) were preincubated with test compound for 10 minutes at 37° C. in 100 mM potassium phosphate buffer, pH 7.4. The reactions were initiated by adding NADPH regenerating system.
The final incubation mixtures contained 1 μM test compound, 0.5 mg/mL liver microsomal protein, 1 mM MgCl2, 1 mM NADP, 1 unit/mL isocitric dehydrogenase and 6 mM isocitric acid in 100 mM potassium phosphate buffer, pH 7.4. After incubation times of 0, 3, 6, 9, 15 and 30 minutes at 37° C., 300 μL of cold acetonitrile (including internal standard) was added to 100 μL incubation mixture to terminate the reaction. Following precipitation and centrifugation, the amount of compound remaining in the samples were determined by LC-MS/MS. Controls of no NADPH regenerating system at zero and 30 minutes were also prepared and analyzed.

CO[C@@H]1CN(c2ccc([C@H]3CCN(c4cc(C)nc5c4cnn5C)C[C@@H]3C)nc2)C[C@H]1N [Example 36, (3R,4R)-1-[6-[(3R,4S)-1-(1,6-dimethylpyrazolo[3,4-b]pyridin-4-yl)-3-methyl-4-piperidyl]-3-pyridyl]-4-methoxy-pyrrolidin-3-amine]
IC50 (human TLR7): 18 nM

Cc1cc(N2CCC(c3cnc(N4CCNCC4)nc3C)CC2)c2cnn(C)c2n1 [Example 11, 1,6-dimethyl-4-[4-(4-methyl-2-piperazin-1-yl-pyrimidin-5-yl)-1-piperidyl]pyrazolo[3,4-b]pyridine]
IC50 (human TLR7): 37 nM

Cc1cc(N2CCC(c3ncc(N4CCNCC4)cc3C)[C@H](C)C2)c2cnn(C)c2n1 (single isomer, unassigned) [Example 25, 1,6-dimethyl-4-[trans-3-methyl-4-(3-methyl-5-piperazin-1-yl-2-pyridyl)-1-piperidyl]pyrazolo[3,4-b]pyridine]
IC50 (human TLR7): 9 nM

Cc1cc(N2CCC(c3cnc(N4CCNCC4)cc3C)[C@H](C)C2)c2cnn(C)c2n1 (single isomer, unassigned) [Example 20, 1,6-dimethyl-4-[cis-3-methyl-4-(4-methyl-6-piperazin-1-yl-3-pyridyl)-1-piperidyl]pyrazolo[3,4-b]pyridine]
IC50 (human TLR7): 50 nM
Clearance of Human microsome [1]: 9.0 mL/min/kg

Cc1cc(N2CCC(c3ncc(N4CCNCC4)nc3C)[C@H](C)C2)c2cnn(C)c2n1 (single isomer, unassigned) [Example 23, 1,6-dimethyl-4-[trans-3-methyl-4-(3-methyl-5-piperazin-1-yl-pyrazin-2-yl)-1-piperidyl]pyrazolo[3,4-b]pyridine]
IC50 (human TLR7): 11 nM

Cc1cc(N2CC[C@H](c3ccc(N4CCOC[C@@H](N)C4)cn3)[C@@H](C)C2)c2cnn(C)c2n1 [Example 40, (6S)-4-[6-[(3R,4S)-1-(1,6-dimethylpyrazolo[3,4-b]pyridin-4-yl)-3-methyl-4-piperidyl]-3-pyridyl]-1,4-oxazepan-6-amine]
IC50 (human TLR7): 9 nM
Clearance of Human microsome [1]: 8.1 mL/min/kg

CO[C@H]1CN(c2ccc([C@H]3CCN(c4cc(C)nc5c4cnn5C)C[C@@H]3C)nc2)CC[C@@H]1N [Example 39, (3S,4S)-1-[6-[(3R,4S)-1-(1,6-dimethylpyrazolo[3,4-b]pyridin-4-yl)-3-methyl-4-piperidyl]-3-pyridyl]-3-methoxy-piperidin-4-amine]
IC50 (human TLR7): 12 nM
Clearance of Human microsome [1]: 6.7 mL/min/kg

Cc1cc(N2CCC(c3ccc(N4CCNCC4)cc3)CC2)c2cnn(C)c2n1 [Example 1, 1,6-dimethyl-4-[4-(4-piperazin-1-ylphenyl)-1-piperidyl]pyrazolo[3,4-b]pyridine]
IC50 (human TLR7): 53 nM

COC[C@H]1CN(c2ccc([C@H]3CCN(c4cc(C)nc5c4cnn5C)C[C@@H]3C)nc2)CCN1 [Example 37, 4-[(3R,4S)-4-[5-[(3R)-3-(methoxymethyl)piperazin-1-yl]-2-pyridyl]-3-methyl-1-piperidyl]-1,6-dimethyl-pyrazolo[3,4-b]pyridine]
IC50 (human TLR7): 9 nM
Clearance of Human microsome [1]: 6.2 mL/min/kg

Cc1cc(N2CCC(c3ncc(N4CCNCC4)nc3C)[C@H](C)C2)c2cnn(C)c2n1 (single isomer, unassigned) [Example 22, 1,6-dimethyl-4-[cis-3-methyl-4-(3-methyl-5-piperazin-1-yl-pyrazin-2-yl)-1-piperidyl]pyrazolo[3,4-b]pyridine]
IC50 (human TLR7): 49 nM

CO[C@@H]1CN(c2cnc([C@@H]3CCN(c4cc(C)nc5c4cnn5C)C[C@H]3C)c(C)c2)C[C@H]1N [Example 26, (3R,4R)-1-[6-[(3S,4R)-1-(1,6-dimethylpyrazolo[3,4-b]pyridin-4-yl)-3-methyl-4-piperidyl]-5-methyl-3-pyridyl]-4-methoxy-pyrrolidin-3-amine]
IC50 (human TLR7): 12 nM

Cc1cc(N2CCC(c3ncc(N4CCNCC4)cn3)CC2)c2cnn(C)c2n1 [Example 4, 1,6-dimethyl-4-[4-(5-piperazin-1-ylpyrimidin-2-yl)-1-piperidyl]pyrazolo[3,4-b]pyridine]
IC50 (human TLR7): 31 nM

CO[C@H]1CN(c2cnc(C3CCN(c4cc(C)nc5c4cnn5C)CC3)c(C)c2)CC[C@@H]1N [Example 17, (3S,4S)-1-[6-[1-(1,6-dimethylpyrazolo[3,4-b]pyridin-4-yl)-4-piperidyl]-5-methyl-3-pyridyl]-3-methoxy-piperidin-4-amine]
IC50 (human TLR7): 22 nM

Cc1cc(N2CCC(c3ncc(N4CCNCC4)cc3C)[C@H](C)C2)c2cnn(C)c2n1 (single isomer, unassigned) [Example 24, 1,6-dimethyl-4-[cis-3-methyl-4-(3-methyl-5-piperazin-1-yl-2-pyridyl)-1-piperidyl]pyrazolo[3,4-b]pyridine]
IC50 (human TLR7): 82 nM

Cc1cc(N2CCC(c3cc(C)c(N4CCNCC4)cn3)CC2)c2cnn(C)c2n1 [Example 9, 1,6-dimethyl-4-[4-(4-methyl-5-piperazin-1-yl-2-pyridyl)-1-piperidyl]pyrazolo[3,4-b]pyridine]
IC50 (human TLR7): 39 nM

Cc1cc(N2CC[C@@H](c3ncc(N4CC[C@@H](N)[C@H](F)C4)cc3C)[C@H](C)C2)c2cnn(C)c2n1 [Example 31, (3R,4R)-1-[6-[(3S,4R)-1-(1,6-dimethylpyrazolo[3,4-b]pyridin-4-yl)-3-methyl-4-piperidyl]-5-methyl-3-pyridyl]-3-fluoro-piperidin-4-amine]
IC50 (human TLR7): 5 nM

Cc1cc(N2CCC(c3cnc(N4CCNCC4)cc3C)CC2)c2cnn(C)c2n1 [Example 8, 1,6-dimethyl-4-[4-(4-methyl-6-piperazin-1-yl-3-pyridyl)-1-piperidyl]pyrazolo[3,4-b]pyridine]
IC50 (human TLR7): 52 nM

Cc1cc(N2CCC(c3ccc(N4CCNCC4)nc3C)CC2)c2cnn(C)c2n1 [Example 10, 1,6-dimethyl-4-[4-(2-methyl-6-piperazin-1-yl-3-pyridyl)-1-piperidyl]pyrazolo[3,4-b]pyridine]
IC50 (human TLR7): 39 nM

COC[C@H]1CN(c2cnc(C3CCN(c4cc(C)nc5c4cnn5C)CC3)c(C)c2)CCN1 [Example 16, 4-[4-[5-[(3R)-3-(methoxymethyl)piperazin-1-yl]-3-methyl-2-pyridyl]-1-piperidyl]-1,6-dimethyl-pyrazolo[3,4-b]pyridine]
IC50 (human TLR7): 23 nM

Cc1cc(N2CCC(c3ncc(N4CC[C@@H](N)[C@@H](F)C4)cc3C)CC2)c2cnn(C)c2n1 [Example 15, (3S,4R)-1-[6-[1-(1,6-dimethylpyrazolo[3,4-b]pyridin-4-yl)-4-piperidyl]-5-methyl-3-pyridyl]-3-fluoro-piperidin-4-amine]
IC50 (human TLR7): 24 nM
